Source: patent EP3958980B1, “TARGETED NOVEL TRIAZOLOTHIADIAZINE DERIVATIVES FOR THE TREATMENT OF LUNG CANCER” (Anadolu Universitesi, priority 2020, dated 2021)
Converted amounts (≈) assume the structure as drawn. “And” between values parts separate entries of the source, which are not always exact repeats. Equal entries are not always repeated.

Tests used:
COX-2 = biological target: T1, COX-2 (Homo sapiens, UniProt P35354); experiment: COX activity assay (colorimetric kit) on lysates of treated A549 cells, COX-2; assay type: cell-based; conditions: 24 hours incubation, IC50 concentrations
T1 construct: endogenous in cells; host or cells: A549
T1 sequence (P35354 18-604): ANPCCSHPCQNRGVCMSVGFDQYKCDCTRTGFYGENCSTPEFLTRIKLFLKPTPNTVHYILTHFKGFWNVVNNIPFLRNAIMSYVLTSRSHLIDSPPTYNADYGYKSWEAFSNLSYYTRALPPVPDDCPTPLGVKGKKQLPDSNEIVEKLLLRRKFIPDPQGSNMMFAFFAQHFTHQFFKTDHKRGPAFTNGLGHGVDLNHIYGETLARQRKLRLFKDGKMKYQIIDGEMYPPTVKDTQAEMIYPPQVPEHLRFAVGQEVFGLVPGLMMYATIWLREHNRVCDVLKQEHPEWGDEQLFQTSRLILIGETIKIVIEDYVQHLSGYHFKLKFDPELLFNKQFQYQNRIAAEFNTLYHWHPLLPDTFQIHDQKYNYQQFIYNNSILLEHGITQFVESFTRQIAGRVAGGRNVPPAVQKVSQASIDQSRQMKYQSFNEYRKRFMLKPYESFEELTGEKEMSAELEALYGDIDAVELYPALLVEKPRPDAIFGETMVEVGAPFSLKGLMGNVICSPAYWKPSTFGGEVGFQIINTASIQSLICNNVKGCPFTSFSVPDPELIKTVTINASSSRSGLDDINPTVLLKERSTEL
Experimental: The intracellular COX, Akt and ROCK inhibitory effects of the active compounds determined with the MTT assay, were measured with the colorimetric assay according to the manufacturer's recommendations.
COX activity was carried out using Cayman COX activity assay kit in compliance with the manufacturer's recommendations. Briefly, 150 µL of each sample was kept in boiling water for 5 minutes and centrifuged at 8000 × g for 1 minute and it was used to obtain background values. […] 110 µL assay solution, 10 µL hemin and 40 µL sample, 10 µL DuP-697 or SC-560 was added to the inhibitor wells (DuP-697 inhibits COX-2 activity; while SC-560 inhibits COX-1 activity). The plate was shaked for a few seconds and it was left at 25 °C for 5 minutes. 20 µL colorimetric substrate was added to all wells. Moreover, a reaction was started by adding 20 µL arachidonic acid solution and the plate was shaked for a few seconds and it was left at 25 °C for 5 minutes. The absorbance values were read at 540 nm.

[1] = test system: CCD-19Lu normal lung fibroblast cells; experiment: MTT assay, in vitro cytotoxic activity on CCD-19Lu; assay type: cell-based; conditions: for IC50: Homo sapiens, CCD 19Lu, 24 hour incubation, read-out: IC50 values (µg/mL) CCDLul9 cell line
Experimental: The in vitro cytotoxic effects of the compounds were determined with the MTT assay. For this purpose, MTT test was performed using A549 and CCD-19Lu cell lines. After the cell lines used in the invention were centrifuged following taking them out from liquid nitrogen (-196 °C), the cells were cultured in a CO2 incubator comprising 5% CO2 at 37 °C in flasks containing 10% fetal bovine serum (FBS), where CCD-19Lu cells were cultured with Dulbecco's Modified Eagle's Medium (DMEM) and A549 cells were cultured with Roswell Park Memorial Institute (RPMI). The cells that reach the sufficient number for the assay, were seeded to 96 well plates such that 2×10^3 cells were placed in each well and at the same time, components at concentrations of 1-500 µg/mL were added to cells and they were incubated at 37 °C. At the end of the 24 hour incubation period, the MTT powder (5 mg/mL in 1 × phosphate buffered saline (PBS)) was added to each well (20 µL). After a 2-4 h period under the same conditions, the medium was removed from the plate and 100 µL of DMSO was added to each well to dissolve the dye and kept for 10 minutes. Then the plates were read at a wavelength of 540 nm using ELx808-IU Bio-Tek plate reader. The control cell viability which was not treated with the components was accepted to be 100% and the viability rates of the cells were expressed as %. […] According to the results obtained, the dose range was extended until the IC50 value was determined.
MTT assay is a frequently used method which measures the cytotoxic effects of the compounds on the cells by converting the yellow colored MTT stain into purple colored formazan crystals via the mitochondrial succinate dehydrogenase activity. In the cytotoxic activity tests of the compounds, A549 lung adenocarcinoma and CCDLu19 normal lung fibroblast cell lines were used.

Akt = Akt colorimetric in cell ELISA in A549 cells; assay type: cell-based, human; conditions: 24 hours; for Akt inhibition (in words): compared to cisplatin and GSK690693
Experimental: After 10.000 cells were seeded in the wells, they were kept in the incubator for 24 hours. […] Briefly, the medium was removed from the wells and 100 µL of 4% formaldehyde was added. The plate was incubated in a fume hood for 15 minutes. Formaldehyde was removed and the plate was washed twice with 1X […] (TBS) such as to be 100 µL/well. 1X TBS was removed and 100 µL 1X permeabilization solution was added to each well and it was kept at room temperature for 15 minutes. After the 1X permeabilization solution was removed, the wells were washed with 100 µL 1X TBS once. 1X TBS was removed and 100 µL quenching solution was added to each well and it was kept at room temperature for 20 minutes. Afterwards, this solution was removed. The plate was washed 1 time with 1X TBS and 100 µL blocking solution was added to the wells and it was kept at room temperature for 30 minutes. At the end of this period, the blocking solution was removed and 50 µL primary antibody was added to the wells. The plate was sealed with a cover and it was incubated overnight at 4 °C. The primary antibody was removed and the plate wells were washed 3 times with 100 µL 1X washing solution. After the washing solution was removed, 100 µL diluted horseradish peroxidase (HRP) conjugate was added and it was incubated at room temperature for 30 minutes. Later on this conjugate was removed and 100 µL 3,3',5,5'-tetramethylbenzidine (TMB) […] was added to each well and the absorbance values were read at 450 nm for 30 minutes. The experiment was carried out in triplicate. The values of the blank wells were subtracted from the values of the untreated control and treated cells. The Akt activity% was determined as the relative absorbance of treated versus untreated control cells.

[2] = IC50/2 concentration (9: 2.88; 11: 0.37; 12: 0.40; 14: 1.32; GSK690693: 3.34; Cisplatin: 11.50 µg/mL)
[3] = IC50/4 concentration (9: 1.44; 11: 0.18; 12: 0.20; 14: 0.66; GSK690693: 1.69; Cisplatin: 5.75 µg/mL)
[4] = IC50 concentration (9: 5.75; 11: 0.73; 12: 0.80; 14: 2.63; GSK690693: 6.75; Cisplatin: 23.00 µg/mL)

Row | SMILES | COX-2 Inhibition% (COX-2) | COX-2 activity (U/mL) (COX-2) | cytotoxicity against CCDLu19 cells (in words) [1] | IC50 [1] [µg/mL] | Akt Inhibition% (Akt; [2]) [%] | Akt Inhibition% (Akt; [3]) [%] | Akt Inhibition% (Akt; [4]) | Akt inhibition (in words) (Akt) | Akt Inhibition% (Akt; IC50 concentration (9: 5.75; 11: 0.73; 12: 0.80; 14: 2.63; GSK690693: 6.75; Cisplatin: 23.00 µg/mL), listed as cisplatin) [%]
1 | CS(=O)(=O)c1ccc(C2=Nn3c(CCc4ccc5c(c4)OCO5)nnc3SC2)cc1 [Compound 9] | 32.66% | 3.60 | non-cytotoxic | 102 ± 10.4 (≈ 230 µM) | 7.31±1.48 | 15.99±1.06 | 45.47% and 45.47±3.76% | moderate Akt inhibition | –
2 | N.N.[Cl][Pt][Cl] [Cisplatin, reference compound] | 43.46% | 2.38 | – | – | 56.23±1.45 | 50.46±6.89 | 59.55±8.44% | – | 59.55
3 | FC(F)(F)c1ccc(C2=Nn3c(CCc4ccc5c(c4)OCO5)nnc3SC2)cc1 [Compound 11, 3-[2-(1,3-Benzodioxole-5-yl)ethyl]-6-(4-trifluoromethylphenyl)-7H-[1,2,4]triazolo [3,4-b][1,3,4]thiadiazine] | – | 1.46 | non-cytotoxic | 113 ± 5.77 (≈ 262 µM) | 6.66±3.51 | 0.91±1.29 | 8.18±3.74% | did not exhibit significant Akt inhibition | –
4 | c1ccc(-c2ccc(C3=Nn4c(CCc5ccc6c(c5)OCO6)nnc4SC3)cc2)cc1 [Compound 14, 3-[2-(1,3-Benzodioxole-5-yl)ethyl]-6-(biphenyl-4-yl)-7H-[1,2,4]triazolo[3,4-b] [1,3,4]thiadiazine] | 15.17% and 15.70% | 3.56 | non-cytotoxic | 65 ± 5 (≈ 148 µM) | 15.99±3.66 | 23.51±3.00 | 44.30% and 44.30±5.68% | moderate Akt inhibition | –
5 | Fc1cccc(C2=Nn3c(CCc4ccc5c(c4)OCO5)nnc3SC2)c1 [Compound 12, 3-[2-(1,3-Benzodioxole-5-yl)ethyl]-6-(3-fluorophenyl)-7H-[1,2,4]triazolo [3,4-b] [1,3,4]thiadiazine] | 53.52% | 1.95 | non-cytotoxic | 34.3 ± 2.08 (≈ 89.8 µM) | 16.67±0.05 | 19.24±2.43 | 46.87% and 46.87±4.60% | moderate Akt inhibition | –
